Laboratory results: PMC7094737 (Journal of Molecular Biology, 2008)
Positions count from the first letter of the chain named.

Experiments:
[1] = target: T1, SFV macro (nsP3) (Semliki forest virus, UniProt P08411); assay: ADPR-1″P hydrolysis; type: biochemical; details: by SFV nsP3 (167-aa and 328-aa similar); Fig. 2, TLC
T1 sequence (P08411 1337-1503 limits assumed): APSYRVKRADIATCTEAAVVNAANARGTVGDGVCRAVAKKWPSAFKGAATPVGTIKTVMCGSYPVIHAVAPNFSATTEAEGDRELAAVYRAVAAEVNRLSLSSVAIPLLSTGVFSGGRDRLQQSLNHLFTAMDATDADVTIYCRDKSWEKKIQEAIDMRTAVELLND

[2] = target: T2, MDO2 (Homo sapiens, UniProt A1Z1Q3); assay: ADPR-1″P hydrolysis; type: biochemical; details: by MDO2; Fig. 2, TLC
T2 sequence (A1Z1Q3 1-243): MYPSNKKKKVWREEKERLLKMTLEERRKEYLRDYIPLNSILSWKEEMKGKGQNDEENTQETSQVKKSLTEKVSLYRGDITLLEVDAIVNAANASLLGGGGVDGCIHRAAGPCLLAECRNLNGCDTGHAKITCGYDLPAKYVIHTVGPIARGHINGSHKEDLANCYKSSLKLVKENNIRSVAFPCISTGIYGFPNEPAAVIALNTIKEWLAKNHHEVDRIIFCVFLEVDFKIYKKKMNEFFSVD

[3] = target: T3, GDAP2 (Homo sapiens, UniProt Q9NXN4); assay: ADPR-1″P hydrolysis; type: biochemical; details: by GDAP2; Fig. 2, TLC
T3 sequence (Q9NXN4 1-231 isoform Q9NXN4-2): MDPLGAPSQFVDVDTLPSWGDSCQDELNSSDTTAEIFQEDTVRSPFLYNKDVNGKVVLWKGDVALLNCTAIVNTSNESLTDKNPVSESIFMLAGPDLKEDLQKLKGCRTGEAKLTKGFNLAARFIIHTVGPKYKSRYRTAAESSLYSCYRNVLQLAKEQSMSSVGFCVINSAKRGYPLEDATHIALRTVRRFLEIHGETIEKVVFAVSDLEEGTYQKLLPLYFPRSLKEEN

[4] = target: T4, MDO1 (Homo sapiens, UniProt Q9BQ69); assay: ADPR-1″P hydrolysis; type: biochemical; details: by MDO1; Fig. 2, TLC
T4 sequence (Q9BQ69 83-325): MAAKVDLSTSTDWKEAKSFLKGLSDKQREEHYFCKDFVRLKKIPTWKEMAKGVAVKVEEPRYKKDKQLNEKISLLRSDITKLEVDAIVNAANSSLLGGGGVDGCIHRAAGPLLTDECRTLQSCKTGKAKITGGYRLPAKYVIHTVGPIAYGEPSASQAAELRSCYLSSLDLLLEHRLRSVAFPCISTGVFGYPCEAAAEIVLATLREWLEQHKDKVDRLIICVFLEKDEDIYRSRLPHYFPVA

[5] = test system: macro domains; assay: Filter binding with radioactive NAD+ alone
[6] = target: T5, SFV macro (Semliki forest virus, UniProt P08411); assay: Competition for poly; type: binding; details: data not shown
T5 sequence (P08411 1337-1495 limits assumed): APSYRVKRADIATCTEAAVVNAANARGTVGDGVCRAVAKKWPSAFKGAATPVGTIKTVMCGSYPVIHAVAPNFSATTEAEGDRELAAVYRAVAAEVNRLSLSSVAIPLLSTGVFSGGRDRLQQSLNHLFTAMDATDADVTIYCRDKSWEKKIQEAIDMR

[7] = target: T4, MDO1; assay: Competition for poly; type: binding; details: data not shown
[8] = target: T6, HEV macro (Hepatitis E virus genotype 1, UniProt P29324); assay: Competition for poly; type: binding; details: data not shown
T6 sequence (P29324 775-960): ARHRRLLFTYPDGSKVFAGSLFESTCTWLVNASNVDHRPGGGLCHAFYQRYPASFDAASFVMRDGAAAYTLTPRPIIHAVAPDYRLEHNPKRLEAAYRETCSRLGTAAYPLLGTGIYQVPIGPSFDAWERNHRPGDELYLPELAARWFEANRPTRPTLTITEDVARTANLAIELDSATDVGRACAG

[9] = target: T4, MDO1; type: binding; details: MDO1, 500 mM NaCl, data not shown
[10] = target: T3, GDAP2; assay: [32P]poly; type: binding; details: to GDAP2; Fig. 3c
[11] = target: T2, MDO2; assay: [32P]poly; type: binding; details: to MDO2; Fig. 3c
[12] = target: T6, HEV macro; type: binding; details: to HEV macro; Fig. 3b
[13] = test system: macro proteins; type: biochemical
[14] = target: T7, Poa1p (Saccharomyces cerevisiae, UniProt P38218, S2A); type: binding; details: to Poa1p; Fig. 3b
T7 sequence (P38218 1-177 S2A): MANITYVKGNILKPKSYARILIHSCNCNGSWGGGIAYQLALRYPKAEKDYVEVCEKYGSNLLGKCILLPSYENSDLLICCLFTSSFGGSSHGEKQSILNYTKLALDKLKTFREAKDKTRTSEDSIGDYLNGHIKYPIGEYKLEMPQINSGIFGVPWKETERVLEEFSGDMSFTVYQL

[15] = target: T1, SFV macro (nsP3); type: binding; details: to SFV macro; Fig. 3b
[16] = target: T4, MDO1; type: binding; details: to MDO1; Fig. 3b
[17] = target: T8, MDO1 G182Y + G270Y (Homo sapiens, UniProt Q9BQ69, G182Y/G270Y); type: binding; details: filter washed with 1 M NaCl, not shown
T8 sequence (Q9BQ69 83-325 G182Y/G270Y): T4 sequence (Q9BQ69 83-325) with G100Y, G188Y

[18] = target: T2, MDO2; type: binding; details: to MDO2; Fig. 3b
[19] = target: T3, GDAP2; type: binding; details: to GDAP2
[20] = monomeric ADP-ribose 1500-fold excess
[21] = molar excess of poly(A) ∼ 400-fold

Compound: Nc1ncnc2c1ncn2[C@@H]1O[C@H](COP(=O)(O)OP(=O)(O)OC[C@H]2O[C@H](OP(=O)(O)O)[C@H](O)[C@@H]2O)[C@@H](O)[C@H]1O [ADPR-1″P, ADP-ribose-1″ phosphate]
- ADPR-1″P hydrolysis (in words) [1]: only a minor activity
- ADPR-1″P hydrolysis (in words) [2]: equally efficiently as yeast Poa1p
- ADPR-1″P hydrolysis (in words) [3]: inactive
- ADPR-1″P hydrolysis (in words) [4]: equally efficiently as yeast Poa1p

Compound: NC(=O)c1ccc[n+]([C@@H]2O[C@H](COP(=O)([O-])OP(=O)(O)OC[C@H]3O[C@@H](n4cnc5c(N)ncnc54)[C@H](O)[C@@H]3O)[C@@H](O)[C@H]2O)c1 [NAD ^+]
- radioactive signal on filter-bound macro domains [5]: no radioactive signal

Compound: ADP-ribose
- competition for the binding of poly(ADP-ribose) [6, 20]: no competition
- competition for the binding of poly(ADP-ribose) [7, 20]: no competition
- competition for the binding of poly(ADP-ribose) [8, 20]: no competition
- dissociation constant in high-salt buffer versus standard conditions [9]: approximately twofold

Compound: poly(A)
- competition for the binding of poly(ADP-ribose) [6, 21]: no competition
- poly(A) binding (in words) [10]: bound poly(A)
- competition for the binding of poly(ADP-ribose) [7, 21]: no competition
- competition for the binding of poly(ADP-ribose) [8, 21]: no competition
- poly(A) binding (in words) [11]: did not bind poly(A)

Compound: poly(ADP-ribose)
- poly(ADP-ribose) binding (in words) [12]: bound poly(ADP-ribose) effectively
- poly(ADP-ribose) hydrolysis activity [13]: None of the macro proteins degraded poly(ADP-ribose)
- poly(ADP-ribose) binding (in words) [14]: did not show effective binding
- poly(ADP-ribose) binding (in words) [15]: bound poly(ADP-ribose) effectively
- poly(ADP-ribose) binding (in words) [16]: bound poly(ADP-ribose)
- poly(ADP-ribose) binding after stringent wash [17]: did not have an effect on poly(ADP-ribose) binding
- poly(ADP-ribose) binding (in words) [18]: did not show effective binding
- poly(ADP-ribose) binding (in words) [19]: inefficient
